This note sets out measurements from patent publication US11389440B2, “PIM kinase inhibitors in combination with autophagy inhibitors for treatment of cancers” (UNIVERSITY OF MARYLAND, BALTIMORE COUNTY, priority 2017, dated 2022).

In test [1] the test system is acute myeloid leukemia cells (EOL1). Kind of test: MTT assay of EOL1 cells treated with AZD1208 and chloroquine alone and in combination; CI by CompuSyn. The format is cell-based, human. To be noted: EOL1, 48 hours, scale 0-1. The procedure:
(§1) General experimental procedure: 20,000 (EOL1) cells were seeded per well in 96-well plates. […] At 48 hours the MTT metabolism indicative of number of live cells was measured by MTT assay (Promega, Cat: G4000). The resulting values were used to evaluate the Fa (fraction affected) values, which were plugged into the CompuSyn software to calculate the combination indices (CI values) at ED50, ED75, ED90 and ED95 (ED—Effective dose of combination).
The data were analyzed using CompuSyn, an algorithm based on the Chao-Talalay method for detecting drug synergy (3).
Table 3. […] CI values were determined using CompuSyn at 50%, 75%, 90%, and 95% growth inhibition (GI) Cell growth was measured using standard 3-(4,5-dimethylthiazol-2-yl)-2,5-diphenyltetrazolium bromide (MTT) assays.
For orientation: Tetrazolium dyes change colour on reduction, which living cells bring about.

The next test concerns Molm16 cells. Description: Molm16 cells treated with AZD1208 in combination with autophagy inhibitors (FA values, CI values). It counts as cell-based. Also on record: key: fraction of cells affected by treatment (0–1). The procedure:
as §1
These are values of drug dose and effect (fraction of cells affected by the treatment—FA values). The treatment time is 72 hours.
The data presented in this Table 5 is from an experiment in which Molm16 cells were treated with AZD1208 in combination with verteporfin (AZD1208 μM:verteporfin μM=1:200). These are values of drug dose and effect (fraction of cells affected by the treatment—FA values). The treatment time is 72 hours.
The data presented in this Table 6 is from an experiment in which Molm16 cells were treated with AZD1208 in combination with Bafilomycin A1 (AZD1208 μM:bafilomycin A1 μM=1:1). These are values of drug dose and effect (fraction of cells affected by the treatment—FA values). The treatment time is 48 hours.

On to `N[C@@H]1CCCN(c2c(/C=C3/SC(=O)NC3=O)cccc2-c2ccccc2)C1` [AZD1208, (5E)-5-[[2-[(3R)-3-aminopiperidin-1-yl]-3-phenylphenyl]methylidene]-1,3-thiazolidine-2,4-dione], for which the figures for the “Effect (FA, fraction affected)” value in test [1] (AZD1208 alone 0.05 μM), in test [1] (AZD1208 alone 0.1 μM) and in test [1] (AZD1208 alone 0.25 μM) were 0.505, 0.639 and 0.386, respectively. For the same compound, the “Effect (FA, fraction of cells affected)” value with Molm16 cells (AZD1208 alone 0.00625 μM, Molm16, 48 hours, Table 6) was determined as 0.1716; with Molm16 cells (AZD1208 alone 0.0125 μM, Molm16, 48 hours, Table 6), 0.2259; in the test on Molm16 cells (AZD1208 alone 0.0125 μM, Molm16, 72 hours, Table 4), 0.2413; with Molm16 cells (AZD1208 alone 0.025 μM, Molm16, 48 hours, Table 6), 0.3615; in the test on Molm16 cells (AZD1208 alone 0.025 μM, Molm16, 72 hours, Table 4), 0.354; in the test with Molm16 cells (AZD1208 alone 0.05 μM, Molm16, 72 hours, Table 4), 0.5497. Further, the “Effect (FA, fraction of cells affected)” value is reported as 0.4847 in the test on Molm16 cells (AZD1208 alone 0.05 μM, Molm16, 72 hours, Table 5) and 0.6474 with Molm16 cells (AZD1208 alone 0.1 μM, Molm16, 72 hours, Table 5).

For `CO/C1=C\C(C)=C\[C@@H](C)[C@@H](O)[C@@H](C)C/C(C)=C/C=C/[C@H](OC)[C@@H]([C@@H](C)[C@@H](O)[C@H](C)[C@@]2(O)C[C@@H](O)[C@H](C)[C@@H](C(C)C)O2)OC1=O` [Bafilomycin A1], the “Effect (FA, fraction of cells affected)” value in the test with Molm16 cells (Bafilomycin A1 alone 0.00625 μM, Molm16, 48 hours) is on record as 0.4744; in the test with Molm16 cells (Bafilomycin A1 alone 0.0125 μM, Molm16, 48 hours), 0.7998; in the test with Molm16 cells (Bafilomycin A1 alone 0.025 μM, Molm16, 48 hours) it was 0.8279.

Regarding `CCN(CC)CCCC(C)Nc1ccnc2cc(Cl)ccc12` (stereo not shown) [chloroquine], the “Effect (FA, fraction of cells affected)” value was 0.05357 in the test on Molm16 cells (chloroquine alone 10 μM, Molm16, 72 hours); 0.1376 in the test on Molm16 cells (chloroquine alone 20 μM, Molm16, 72 hours); 0.4647 in the test on Molm16 cells (chloroquine alone 40 μM, Molm16, 72 hours).

With Verteporfin, the “Effect (FA, fraction of cells affected)” value stood at 0.08412 in the test with Molm16 cells (Verteporfin alone 10 μM, Molm16, 72 hours) and 0.2143 with Molm16 cells (Verteporfin alone 20 μM, Molm16, 72 hours).
